Experimental data as given in US9233109B2, “Compositions, methods of use, and methods of treatment” (UNIVERSITY OF FLORIDA RESEARCH FOUNDATION, INC., priority 2010, dated 2016).
Read-outs that look alike come from different tables or passages of the source.

Key:
[1] = target: T1, HS α4β2 (α4(2)β2(3)) nAChR (Homo sapiens, UniProt P17787+P43681); assay: Bath application of test compound: inhibition of ACh-evoked peak currents in Xenopus oocytes; format: cell-based; conditions: for IC50: 10 μM ACh
T1 construct: expressed in transfected cells; host or cells: Xenopus laevis oocytes injected with cRNA
T1 sequence (P17787 26-502): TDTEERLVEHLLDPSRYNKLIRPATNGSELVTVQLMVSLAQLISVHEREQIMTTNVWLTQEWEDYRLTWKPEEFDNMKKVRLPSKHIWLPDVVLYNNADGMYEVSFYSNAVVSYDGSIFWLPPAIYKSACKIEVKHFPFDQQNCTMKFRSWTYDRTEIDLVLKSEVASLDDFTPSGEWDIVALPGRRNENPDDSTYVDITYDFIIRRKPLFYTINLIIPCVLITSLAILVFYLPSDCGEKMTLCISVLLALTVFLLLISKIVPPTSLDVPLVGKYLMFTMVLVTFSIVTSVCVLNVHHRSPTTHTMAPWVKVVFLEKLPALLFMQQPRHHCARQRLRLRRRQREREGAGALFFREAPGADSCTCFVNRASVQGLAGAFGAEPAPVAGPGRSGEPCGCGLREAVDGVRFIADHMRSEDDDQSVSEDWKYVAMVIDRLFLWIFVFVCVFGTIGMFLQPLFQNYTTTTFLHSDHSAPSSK
T1 sequence (P43681 29-627 limits assumed): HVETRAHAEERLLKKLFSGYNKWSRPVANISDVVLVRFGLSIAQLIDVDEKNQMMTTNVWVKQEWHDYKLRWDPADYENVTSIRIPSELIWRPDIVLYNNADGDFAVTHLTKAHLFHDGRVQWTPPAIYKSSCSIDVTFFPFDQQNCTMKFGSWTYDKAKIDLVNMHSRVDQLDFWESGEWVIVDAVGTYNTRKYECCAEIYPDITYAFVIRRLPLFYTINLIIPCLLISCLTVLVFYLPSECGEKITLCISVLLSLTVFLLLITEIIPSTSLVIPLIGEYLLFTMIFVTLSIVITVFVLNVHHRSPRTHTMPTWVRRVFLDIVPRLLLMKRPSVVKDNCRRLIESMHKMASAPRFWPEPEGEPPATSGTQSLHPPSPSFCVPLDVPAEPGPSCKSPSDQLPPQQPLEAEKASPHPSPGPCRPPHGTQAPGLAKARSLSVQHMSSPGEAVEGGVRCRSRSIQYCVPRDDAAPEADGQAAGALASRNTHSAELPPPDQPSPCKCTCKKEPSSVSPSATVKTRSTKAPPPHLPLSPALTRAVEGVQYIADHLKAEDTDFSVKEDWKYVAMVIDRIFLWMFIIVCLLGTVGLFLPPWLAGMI
T1 sequence (P17787 26-502): as the sequence (P17787 26-502) above
Procedure: (§1) We have extended this approach to defined receptor subtypes expressed in Xenopus oocytes. Experiments were conducted on cells expressing HS α4β2 (α4(2)β2(3)), LS α4β2 (α4(3)β2(2)), or α7 nAChR.
(§2) cDNA: Human nAChR receptor clones and concatamers were obtained from Dr. Jon Lindstrom (University of Pennsylvania, Philadelphia Pa.). The human RIC-3 clone, obtained from Dr. Millet Treinin (Hebrew University, Jerusalem Israel), was co-injected with α7 to improve the levels and speed of receptor expression.
(§3) Oocyte preparation: Oocytes were surgically removed from mature Xenopus laevis frogs and injected with 50 nl (5-20 ng) of appropriate nAChR subunit cRNAs as described previously (Horenstein et al., 2008).
(§4) Experiments were conducted using OpusXpress 6000A (Molecular Devices, Union City Calif.) and analyzed as described previously (Papke and Papke, 2002; Horenstein et al., 2008; Papke and Stokes, 2010).
(§5) Initial experiments were run for 50 minutes after the introduction of the experimental compounds into the bath.

[2] = target: T2, LS α4β2 (α4(3)β2(2)) nAChR (Homo sapiens, UniProt P17787+P43681); assay: as above; format: cell-based; conditions: for IC50: 30 μM ACh
T2 construct: expressed in transfected cells; host or cells: Xenopus laevis oocytes injected with cRNA
T2 sequence (P17787 26-502): as above
T2 sequence (P43681 29-627 limits assumed): as the sequence (P43681 29-627 limits assumed) above
T2 sequence (P43681 29-627 limits assumed): as above
Procedure: as §1, §2, §3, §4, §5

α7 nAChR [3] = target: T3, α7 nAChR (Homo sapiens, UniProt P36544); assay: Bath application of test compound: modulation of ACh-evoked net charge responses in Xenopus oocytes; format: cell-based
T3 construct: expressed in transfected cells; host or cells: Xenopus laevis oocytes injected with cRNA
T3 sequence (P36544 23-502): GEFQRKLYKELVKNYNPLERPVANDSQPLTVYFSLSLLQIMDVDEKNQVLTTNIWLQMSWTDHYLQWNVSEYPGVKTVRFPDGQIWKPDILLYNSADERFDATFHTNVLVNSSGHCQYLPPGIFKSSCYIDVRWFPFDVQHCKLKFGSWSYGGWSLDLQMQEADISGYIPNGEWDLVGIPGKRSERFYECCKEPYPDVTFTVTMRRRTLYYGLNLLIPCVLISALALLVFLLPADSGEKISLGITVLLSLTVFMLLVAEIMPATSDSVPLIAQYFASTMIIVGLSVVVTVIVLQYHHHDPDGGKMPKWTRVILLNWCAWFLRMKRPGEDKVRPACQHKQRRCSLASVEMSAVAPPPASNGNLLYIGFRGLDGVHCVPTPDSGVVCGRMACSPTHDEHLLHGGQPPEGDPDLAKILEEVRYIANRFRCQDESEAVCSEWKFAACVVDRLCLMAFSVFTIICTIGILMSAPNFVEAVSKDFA
Procedure: as §1, §2, §3, §4, §5

[4] = system: α4(3)β2(2), α4(2)β2(3) and α7 nAChR; assay: Baseline shifts / steady-state currents in the presence of bath-applied 3-pyr-Cyt, oocytes; format: cell-based, human; conditions: bath application
Procedure: FIG. 2.8 is a summary of the effects of bath-applied 3-pyr-Cyt on α4(3)β2(2) and α4(2)β2(3) and α7 nAChR. Bath application experiments were conducted as described for cytisine, varenicline, and nicotine.
One such compound is 3-(pyridin-3′-yl)-cytisine (3-pyr-Cyt), an agent proposed to have very little likelihood of off-target α7 activity (Mineur et al., 2009).

α4(2)β2(2)α5 nAChR = target: T4, α4(2)β2(2)α5 nAChR (Homo sapiens, UniProt P17787+P30532+P43681); assay: Bath application of test compound: inhibition of ACh-evoked responses in Xenopus oocytes; format: cell-based
T4 construct: expressed in transfected cells; host or cells: Xenopus laevis oocytes injected with cRNA
T4 sequence (P17787 26-502): as the sequence (P17787 26-502) above
T4 sequence (P43681 29-627 limits assumed): as the sequence (P43681 29-627 limits assumed) above
T4 sequence (P30532 23-468): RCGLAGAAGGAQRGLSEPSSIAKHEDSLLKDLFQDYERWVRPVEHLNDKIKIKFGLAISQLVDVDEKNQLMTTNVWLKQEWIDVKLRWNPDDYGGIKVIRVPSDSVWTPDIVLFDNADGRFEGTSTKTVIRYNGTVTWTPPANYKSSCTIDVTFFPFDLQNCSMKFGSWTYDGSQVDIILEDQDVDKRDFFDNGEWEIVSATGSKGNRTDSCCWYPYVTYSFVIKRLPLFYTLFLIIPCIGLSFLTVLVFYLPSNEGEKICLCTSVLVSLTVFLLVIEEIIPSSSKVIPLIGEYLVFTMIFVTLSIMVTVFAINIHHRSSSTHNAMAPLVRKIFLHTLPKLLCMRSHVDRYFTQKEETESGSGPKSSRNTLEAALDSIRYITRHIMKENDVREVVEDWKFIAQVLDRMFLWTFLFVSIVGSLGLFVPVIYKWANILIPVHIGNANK
Procedure: as §2, §3, §4, §5
(§6) Recently, attention has been drawn to α5 as a member of a gene cluster associated with high risk for cancer and heavy smoking (Saccone et al., 2007). In the periphery, α5 is most likely expressed in association with the other members of its gene cluster, α3 and β4.

α4β2α5 nAChR [5] = target: T5, α4β2α5 nAChR (Homo sapiens, UniProt P17787+P30532+P43681); assay: Bupropion co-applied with ACh: inhibition of ACh-evoked responses, oocytes; format: cell-based; conditions: co-applied with 3 μM ACh
T5 construct: expressed in transfected cells; host or cells: Xenopus laevis oocytes injected with cRNA
T5 sequence (P17787 26-502): as the sequence (P17787 26-502) above
T5 sequence (P43681 29-627 limits assumed): as the sequence (P43681 29-627 limits assumed) above
T5 sequence (P30532 23-468): as the sequence (P30532 23-468) above

α4(3)β2(2) nAChR = target: T6, α4(3)β2(2) nAChR (Homo sapiens, UniProt P17787+P43681); assay: as above; format: cell-based; conditions: co-applied with 30 μM ACh
T6 construct: expressed in transfected cells; host or cells: Xenopus laevis oocytes injected with cRNA
T6 sequence (P17787 26-502): as the sequence (P17787 26-502) above
T6 sequence (P43681 29-627 limits assumed): as the sequence (P43681 29-627 limits assumed) above
T6 sequence (P43681 29-627 limits assumed): as above
Procedure: as §5

α7 nAChR [6] = target: T3, α7 nAChR; assay: as above; format: cell-based
Procedure: as §5

α4(2)β2(3) nAChR = target: T7, α4(2)β2(3) nAChR (Homo sapiens, UniProt P17787+P43681); assay: as above; format: cell-based; conditions: co-applied with 10 μM ACh
T7 construct: expressed in transfected cells; host or cells: Xenopus laevis oocytes injected with cRNA
T7 sequence (P17787 26-502): as the sequence (P17787 26-502) above
T7 sequence (P43681 29-627 limits assumed): as the sequence (P43681 29-627 limits assumed) above
T7 sequence (P17787 26-502): as the sequence (P17787 26-502) above
Procedure: as §5

[7] = system: α4(3)β2(2), α4(2)β2(3), α4(2)β2(2)α5 and α7 nAChR; assay: Test of bupropion for receptor activation, oocytes; format: cell-based, human; conditions: 300 nM to 300 μM
α4β2α5 nAChR [8] = target: T5, α4β2α5 nAChR; assay: Agonist activation of α4β2α5 receptors in oocytes; format: cell-based
Description: as §6

[9] = Example 1, average of 30-40 min time points, peak currents, read-out: IC50, inhibition of ACh-evoked responses by prolonged bath application
[10] = read-out: IC50 for the inhibition of ACh evoked responses by bath applications of agonists and partial agonists, Table 2, after 30±4 min bath application

## O=c1c(-c2cccnc2)ccc2n1C[C@@H]1CNC[C@H]2C1 [3-pyr-Cyt, 3-(pyridin-3′-yl)-cytisine]
[1]; 30 nM in bath
  effect on ACh-evoked responses at low concentration: partial inhibition
[1]; [9]
  IC50: 0.653 ± 0.5 µM
[1]; [10]
  IC50: 0.6 ± 0.5 µM
[2]; [9]
  IC50: 5.4 ± 4 µM
[2]; [10]
  IC50: 16 µM
α7 nAChR [3]; Example 1, average of 30-40 min time points, 60 μM ACh, net charge, read-out: IC50, inhibition of ACh-evoked responses by prolonged bath application
  IC50: 103 ± 25 µM
α7 nAChR [3]; highest concentration tested
  concentration at which significant inhibition of α7-mediated responses was achieved: 100 µM
[4]
  baseline shifts or steady-state currents: no baseline shifts or steady-state currents
α4(2)β2(2)α5 nAChR; read-out: IC50 for the inhibition of ACh evoked responses by bath applications of agonists and partial agonists, Table 2, after 30±4 min bath application, 3 μM ACh
  IC50: 2.3 µM

## CC(NC(C)(C)C)C(=O)c1cccc(Cl)c1 (centres unmarked) [bupropion]
α4β2α5 nAChR [5]
  Co-application n (Hill slope of inhibition): −0.70 ± 0.04
α4(3)β2(2) nAChR
  Co-application n (Hill slope of inhibition): −0.93 ± 0.11
α7 nAChR [6]; co-applied with 60 μM ACh
  Co-application n (Hill slope of inhibition): −0.74 ± 0.09
α7 nAChR [6]; read-out: Co-application IC50
  IC50: 46 ± 7 µM
α4(2)β2(3) nAChR
  Co-application n (Hill slope of inhibition): −0.80 ± 0.05
[1]; 30 minutes in bath
  Bath application n (Hill slope of inhibition): −0.40 ± 0.10
[2]; 30 minutes in bath
  Bath application n (Hill slope of inhibition): −1.2 ± 0.4
α7 nAChR [3]; 30 minutes in bath
  Bath application n (Hill slope of inhibition): −1.5 ± 0.5
α7 nAChR [3]; 30 minutes in bath, read-out: Bath application IC50
  IC50: 16 ± 3 µM
[7]
  receptor activation by bupropion: no activation above our level of detection
α4(2)β2(2)α5 nAChR; 30 minutes in bath
  Bath application n (Hill slope of inhibition): −0.47 ± 0.09

## C[N+](C)(C)CCO [choline]
α7 nAChR [3]; IC50, inhibition of ACh-evoked responses by prolonged bath application
  IC50: 6.7 ± 1.2 µM

## c1cnc2cc3c(cc2n1)C1CNCC3C1 [Varenicline, 7,8,9,10-tetrahydro-6,10-methano-6H-pyrazino (2,3-h)(3) benzazepine]
α4(2)β2(2)α5 nAChR; read-out: inhibition of transient ACh-evoked responses
  inhibition at 1 µM: 100%
α4β2α5 nAChR [8]
  efficacy for α4β2α5 receptors, % that of ACh: 9±1%
